{
  "source": "patent US7326538B2",
  "about": "“Binding proteins as biosensors” (Becton Dickinson and Company, priority 2002, dated 2008)",
  "key": {"[1]": {"assay": "SPR glucose detection on immobilized GGBP sensor surfaces (BIACORE)", "assay_type": "binding", "settings": "for SPR Signal, Buffer: running buffer injection; for glucose detection by SPR using thiol-coupled mutants (FIG. 8): 0.1 mM and 1 mM glucose, thiol-coupled surfaces", "procedure": "Proteins were immobilized onto a carboxymethyldextran (CM5) sensor surface (BIACORE) by thiol coupling using standard thiol coupling chemistry with a flow rate of 5 μl/min in 10 mM HEPES pH 7.4, 150 mM NaCl, 0.05% BIACORE Surfactant P20 (BIAcore) (HBS-P) running buffer. The sensor surface was activated with a 2 minute pulse of […] (EDC/NHS) followed by a 4 min pulse of 80 mM 2-(2-pyridinyldithio) ethaneamine (PDEA), 0.1 M sodium borate pH 8.5, E149C GGBP (1.8 mg/ml) was injected at a 1:50 dilution in 10 mM sodium acetate pH 4.5 for various times. Carbonic anhydrase 11 (5 mg/ml) was injected at 1:10 dilution in 10 mM sodium acetate pH 4.5 for 20 minutes. G74C GGBP (2.6 mg/ml) was injected at 1:50 dilution in 10 mM sodium acetate pH 4.5 for 12 minutes. A213C GGBP (0.6 mg/ml) was injected at 1:20 dilution in 10 mM sodium acetate pH 4.5 for 2 4 minutes. A 4 minute pulse of 50 mM cysteine, 1 M NaCl, 0.1 M sodium formate pH 4.3 was used to quench the reaction and remove non-specifically bound protein from the surface. Following immobilization, the protocol DESORB (0.5% SDS, 50 mM glycine pH 9.5) was run to remove protein aggregates from the system. Surfaces of 3000 RU (E149C GGBP), 4500 RU (carbonic anydrase), 2000 RU (A213C GGBP), and 4000 RU (G74C GGBP) were used for experiments.\nProteins were immobilized onto a Carboxymethyldextran (CM5) sensor surface (BIAcore) by amine coupling using standard amine coupling chemistry with a flow rate of 5 μl/min in HBS-P running buffer. The surface was activated with a 7 minute pulse of EDC/NHS. Proteins (WT GGBP, 2 mg/ml; E149C GGBP, 1.8 mg/ml) were injected at a 1:50 dilution in 10 mM sodium acetate pH 4.5 for 20 minutes. A pulse of 1 M ethanolamine pH 8.0 was injected to quench the reaction and remove nonspecifically bound protein. Surfaces of 4800 RU for E149C and 2400 RU for wild type GGBP were used for experiments.\nThiol coupling of E149C GGBP on C1 surfaces was carried out as follows. E149C GGBP was immobilized on a carboxymethyl (C1) chip using standard thiol coupling chemistry with a flow rate of 5 μl/min in HBS-P running buffer. The C1 surface was activated with a 4 min pulse of EDC/NHS followed by a 4 min pulse of 80 mM PDEA of 0.1 M sodium borate pH 8.5. E149C GGBP (1.8 mg/ml) was injected at a 1:2 dilution in 10 mM sodium acetate pH 4.5 for 50 minutes at a flow rate of 1 μl/min. A 7 minute pulse of 50 mM cysteine, 1M NaCl, 0.1 M sodium formate pH 4.3 was used to quench the reaction and remove non-specifically bound protein from the surface. A surface of 9000 RU was used for experiments.\nAmine coupling of E149C GGBP on C1 surfaces. E149C GGBP was immobilized on a C1 chip using standard amine coupling chemistry with a flow rate of 5 μl/min in HBS-P running buffer. The surface was activated with a 7 minute pulse of EDC/NHS. E149C GGBP (1.8 mg/ml) was injected at a 1:2 dilution in 1 0 MM sodium acetate pH 4.5 for 50 minutes at a flow rate of 1 μl/min. A pulse of 1 M ethanolamine pH 8.0 was injected to quench the reaction and remove nonspecifically bound protein.\nAll glucose injections were performed at 25° C. in the appropriate running buffer for the specific experiment. Glucose injections were 10 μl at a flow rate of 10 μl/min (1 minute contact time). Injections of different glucose concentrations were repeated three times and alternated between the protein and blank surfaces. The protein surface was regenerated by washing of the flow channel with running buffer followed by a running buffer injection. Sensorgrams were either blank surface subtracted or were double referenced by first subtracting the glucose injection over a blank surface from the corresponding glucose injection on the protein surface. A buffer injection over the blank surface was then subtracted from a buffer injection over the protein surface. The final sensorgram was obtained by subtracting the normalized buffer injection from the normalized glucose injection. […]"}, "[2]": {"assay": "SPR response of thiol coupled E149C GGBP to a panel of sugars", "assay_type": "binding", "settings": "sugars at 100 μM, 3000 RU thiol-coupled surface", "procedure": "All glucose injections were performed at 25° C. in the appropriate running buffer for the specific experiment. Glucose injections were 10 μl at a flow rate of 10 μl/min (1 minute contact time). Injections of different glucose concentrations were repeated three times and alternated between the protein and blank surfaces. The protein surface was regenerated by washing of the flow channel with running buffer followed by a running buffer injection. Sensorgrams were either blank surface subtracted or were double referenced by first subtracting the glucose injection over a blank surface from the corresponding glucose injection on the protein surface. A buffer injection over the blank surface was then subtracted from a buffer injection over the protein surface. The final sensorgram was obtained by subtracting the normalized buffer injection from the normalized glucose injection.\nFIG. 2 depicts the specificity of E149C mutated GGBP to bind glucose preferentially. The indicated sugars were injected at a concentration of 100 μM on a 3000 RU thiol-coupled E149C surface. Double referenced sensorgrams were averaged during the time frame corresponding between 10 and 50 seconds during the injection. Each injection was done in triplicate."}, "[3]": {"settings": "amine coupling, CM5 chip, 100 μM glucose"}, "[4]": {"settings": "thiol coupling, CM5 chip, 100 μM glucose, blank subtracted or double referenced"}},
  "data": [
    {"substance": "E149C GGBP H6: E. coli GGBP with cysteine substituted for glutamic acid at position 149, C-terminal six-histidine tag", "values": [
      {"measurement": "glucose detection on C1 surface (FIG. 7)", "setting": "[1]; 100 μM glucose, 2000 RU amine-coupled surface", "value": "does not result in glucose binding"},
      {"measurement": "glucose detection on C1 surface (FIG. 6)", "setting": "[1]; 100 μM glucose, 9000 RU thiol-coupled protein surface", "value": "Glucose detection is evident"},
      {"measurement": "signal upon glucose binding, thiol-coupling in comparison to amino coupling or buffer only (FIG. 1)", "setting": "[1]; 100 µM glucose, one minute injection", "value": "significantly enhanced signal"},
      {"measurement": "SPR Signal at Saturating Amounts of Glucose", "setting": "[1]; amine coupling, C1 chip, 1 mM glucose", "value": "−4.9 ± 5.3/ RU"},
      {"measurement": "SPR Signal at Saturating Amounts of Glucose", "setting": "[1]; [3]", "value": "2.1 ± 5.5/ RU"},
      {"measurement": "SPR Signal, Buffer", "setting": "[1]; amine coupling, C1 chip", "value": "0.4 ± 3.1", "unit": "RU"},
      {"measurement": "SPR Signal, Buffer", "setting": "[1]; amine coupling, CM5 chip", "value": "1.4 ± 3.1", "unit": "RU"},
      {"measurement": "SPR Signal, Buffer", "setting": "[1]; thiol coupling, C1 chip", "value": "0.8 ± 1.5", "unit": "RU"},
      {"measurement": "SPR Signal, Buffer", "setting": "[1]; thiol coupling, CM5 chip", "value": "−0.5 ± 4.3", "unit": "RU"},
      {"measurement": "SPR Signal, Buffer", "setting": "[1]; thiol coupling, CM5 chip, denatured surface (neg control)", "value": "−1.4 ± 2.2", "unit": "RU"},
      {"measurement": "SPR Signal, Buffer", "setting": "[1]; thiol coupling, CM5 chip, refolded protein surface", "value": "−3.7 ± 1.5", "unit": "RU"},
      {"measurement": "SPR Signal at Saturating Amounts of Glucose", "setting": "[1]; thiol coupling, C1 chip, 100 μM glucose", "value": "10.2 ± 2.8/ RU"},
      {"measurement": "SPR Signal at Saturating Amounts of Glucose", "setting": "[1]; [4]", "value": "17.7 ± 0.5/ RU"},
      {"measurement": "SPR Signal at Saturating Amounts of Glucose", "setting": "[1]; thiol coupling, CM5 chip, denatured surface (neg control), 100 μM glucose", "value": "0 ± 4.1/ RU"},
      {"measurement": "SPR Signal at Saturating Amounts of Glucose", "setting": "[1]; thiol coupling, CM5 chip, refolded protein surface, 100 μM glucose", "value": "11.4 ± 1.0/ RU"},
      {"measurement": "glucose signal after denaturation (FIG. 3)", "setting": "[1]; thiol-coupled surface, 1 M guanidine HCl overnight, HBS-EP injections", "value": "did not result in glucose signals"},
      {"measurement": "glucose signal after renaturation (FIG. 3)", "setting": "[1]; thiol-coupled surface, HBS-P and 1.5 mM CaCl2, continuous flow overnight", "value": "Glucose signals were restored"},
      {"measurement": "specificity to bind glucose preferentially over other sugars (FIG. 2)", "setting": "[2]", "value": "glucose binds more readily"}
    ]},
    {"substance": "G74C GGBP H6: GGBP with cysteine substituted for glycine at position 74, histidine tag", "values": [
      {"measurement": "glucose detection by SPR using thiol-coupled mutants (FIG. 8)", "setting": "[1]", "value": "signal-enhanced glucose detection"},
      {"measurement": "SPR Signal, Buffer", "setting": "[1]; thiol coupling, CM5 chip", "value": "2.7 ± 3.6", "unit": "RU"},
      {"measurement": "SPR Signal at Saturating Amounts of Glucose", "setting": "[1]; [4]", "value": "22.3 ± 0.2/ RU"}
    ]},
    {"substance": "K137C GGBP H6: GGBP with cysteine substituted for lysine at position 137, histidine tag", "values": [
      {"measurement": "SPR Signal, Buffer", "setting": "[1]; thiol coupling, CM5 chip", "value": "4.8 ± 3.2", "unit": "RU"},
      {"measurement": "SPR Signal at Saturating Amounts of Glucose", "setting": "[1]; [4]", "value": "9.5 ± 4.2/ RU"}
    ]},
    {"substance": "WT GGBP H6: wild type E. coli Galactose/Glucose Binding Protein with histidine tag, non-thiol negative control [reference compound]", "values": [
      {"measurement": "SPR Signal at Saturating Amounts of Glucose", "setting": "[1]; [3]", "value": "5.9 ± 2.3/ RU"},
      {"measurement": "SPR Signal, Buffer", "setting": "[1]; amine coupling, CM5 chip", "value": "2.9 ± 1.5", "unit": "RU"}
    ]},
    {"substance": "A213C GGBP H6: GGBP with cysteine substituted for alanine at position 213, histidine tag", "values": [
      {"measurement": "glucose detection by SPR using thiol-coupled mutants (FIG. 8)", "setting": "[1]", "value": "signal-enhanced glucose detection"},
      {"measurement": "SPR Signal, Buffer", "setting": "[1]; thiol coupling, CM5 chip", "value": "−0.5 ± 0.4", "unit": "RU"},
      {"measurement": "SPR Signal at Saturating Amounts of Glucose", "setting": "[1]; thiol coupling, CM5 chip, 1 mM glucose", "value": "119 ± 0.4/ RU"}
    ]}
  ]
}
